From ChEMBL document CHEMBL4808209 (J Med Chem, 2021)
Values after ≈ are worked out from the molar mass of the structure shown. Active and inactive are the calls of the source. The calls are words filed in the database; no cut-off is given here.

Assays:
[1] = biological target: Sigma intracellular receptor 2 (Homo sapiens, UniProt Q5BJF2); test: Inhibition of sigma 2 receptor (unknown origin) at 0.1 to 1 uM; conditions: dose 0.1-1 µM
[2] = biological target: Sodium-dependent dopamine transporter (Homo sapiens, UniProt Q01959); test: Inhibition of dopamine transporter (unknown origin) at 0.1 to 1 uM; format: ADME; conditions: dose 0.1-1 µM
[3] = biological target: 5-hydroxytryptamine receptor 1D (Homo sapiens, UniProt P28221); test: Inhibition of 5HT1D receptor (unknown origin) at 0.1 to 1 uM; conditions: dose 0.1-1 µM
[4] = biological target: Muscarinic acetylcholine receptor M5 (Homo sapiens, UniProt P08912); test: Inhibition of human muscarinic M5 receptor at 0.1 to 1 uM; conditions: dose 0.1-1 µM
[5] = tested on: Glutamate [NMDA] receptor; test: Inhibition of Glutamate receptor ionotropic NMDA glycine,[…] site (unknown origin) at 0.1 to 1 uM; format: protein-complex assay; conditions: human, dose 0.1-1 µM
[6] = AUC in cynomolgus monkey at 2 mg/kg, po or 0.5 mg/kg, iv administered as cassette dose measured after 24 hrs; format: ADME, organism-based, Macaca fascicularis; parameters: dose 2 mg/kg, time 24 hrs; conditions: in vivo
[7] = tested on: GABA-A receptor; anion channel; test: Inhibition of GABA A receptor (unknown origin) at 0.1 to 1 uM; format: protein-complex assay; conditions: human, dose 0.1-1 µM
[8] = Inhibition of GABA chloride/TBOB site (unknown origin) at 0.1 to 1 uM; conditions: human, dose 0.1-1 µM
Histamine H1 receptor = Histamine H1 receptor (Homo sapiens, UniProt P35367); test: Inhibition of histamine H1 receptor (unknown origin) at 0.1 to 1 uM; conditions: dose 0.1-1 µM
KATO III = test: Antitumor activity against human KATO III stomach cancer cell line xenografted in SCID mouse assessed as tumor growth inhibition at 0.3 mg/kg, po administered once daily for 10 days; format: functional, organism-based; conditions: time 10.0 day
[9] = Inhibition of human PDE4A1A at 0.1 to 1 uM; conditions: dose 0.1-1 µM
[10] = biological target: Voltage-gated inwardly rectifying potassium channel KCNH2 (Homo sapiens, UniProt Q12809); test: Inhibition of human ERG at 0.1 to 1 uM; conditions: dose 0.1-1 µM
[11] = Oral bioavailability in cynomolgus monkey at 2 mg/kg administered as cassette dose measured after 24 hrs; format: ADME, organism-based, Macaca fascicularis; conditions: in vivo
[12] = biological target: Alpha-2A adrenergic receptor (Homo sapiens, UniProt P08913); test: Inhibition of adrenergic alpha 2A receptor (unknown origin) at 0.1 to 1 uM; conditions: dose 0.1-1 µM
[13] = Half life in Beagle dog at 1 mg/kg, iv measured after 24 hrs; format: ADME, organism-based, Canis lupus familiaris; conditions: in vivo
[14] = biological target: Muscarinic acetylcholine receptor M2 (Homo sapiens, UniProt P08172); test: Inhibition of human muscarinic M2 receptor at 0.1 to 1 uM; conditions: dose 0.1-1 µM
[15] = Inhibition of Glutamate kainate site receptor (unknown origin) at 0.1 to 1 uM; format: ADME; conditions: human, dose 0.1-1 µM
[16] = biological target: 5-hydroxytryptamine receptor 4 (Homo sapiens, UniProt Q13639); test: Inhibition of 5HT4 receptor (unknown origin) at 0.1 to 1 uM; conditions: dose 0.1-1 µM
Histamine H2 receptor = Histamine H2 receptor (Homo sapiens, UniProt P25021); test: Inhibition of histamine H2 receptor (unknown origin) at 0.1 to 1 uM; conditions: dose 0.1-1 µM
D(1A) dopamine receptor = D(1A) dopamine receptor (Homo sapiens, UniProt P21728); test: Inhibition of human dopamine D1 receptor at 0.1 to 1 uM; conditions: dose 0.1-1 µM
[17] = biological target: Protein kinase C alpha type (Homo sapiens, UniProt P17252); test: Inhibition of human PKCa at 0.1 to 1 uM; conditions: dose 0.1-1 µM
CYP2C8 = CYP2C8 (Homo sapiens, UniProt P10632); test: Inhibition of CYP2C8 in human liver microsomes using amodiaquine as substrate substrate in presence of NADPH by LC-MS/MS analysis; format: ADME; conditions: probe amodiaquine
[18] = biological target: Sodium-dependent noradrenaline transporter (Homo sapiens, UniProt P23975); test: Inhibition of norepinephrine transporter (unknown origin) at 0.1 to 1 uM; format: ADME; conditions: dose 0.1-1 µM
GABA-B receptor = GABA-B receptor (Homo sapiens, UniProt Q9UBS5+O75899); test: Inhibition of GABA-B receptor (unknown origin) at 0.1 to 1 uM; format: protein-complex assay; conditions: dose 0.1-1 µM
[19] = Inhibition of Glutamate AMPA site receptor (unknown origin) at 0.1 to 1 uM; conditions: human, dose 0.1-1 µM
[20] = biological target: Muscarinic acetylcholine receptor M1 (Homo sapiens, UniProt P11229); test: Inhibition of human muscarinic M1 receptor at 0.1 to 1 uM; conditions: dose 0.1-1 µM
[21] = Clearance in Beagle dog at 1 mg/kg, iv measured after 24 hrs relative to hepatic blood flow; format: ADME, organism-based, Canis lupus familiaris; conditions: in vivo
CYP3A4 = CYP3A4 (Homo sapiens, UniProt P08684); test: Inhibition of CYP3A4 in human liver microsomes using midazolam or testosterone as substrate substrate in presence of NADPH by LC-MS/MS analysis; format: ADME; conditions: human, liver microsomes, probe midazolam or testosterone
[22] = biological target: Type-1 angiotensin II receptor (Homo sapiens, UniProt P30556); test: Inhibition of human angiotensin 2, AT1 at 0.1 to 1 uM; conditions: dose 0.1-1 µM
[23] = biological target: 5-hydroxytryptamine receptor 6 (Homo sapiens, UniProt P50406); test: Inhibition of human 5HT6 receptor at 0.1 to 1 uM; conditions: dose 0.1-1 µM
[24] = Volume of distribution at steady state in Sprague-Dawley rat at 2 mg/kg, po or 1 mg/kg, iv administered as cassette dose measured after 24 hrs; format: ADME, organism-based; conditions: in vivo, read-out: Vdss
Adenosine receptor A1 = Adenosine receptor A1 (Homo sapiens, UniProt P30542); test: Inhibition of adenosine A1 receptor (unknown origin) at 0.1 to 1 uM; conditions: dose 0.1-1 µM
[25] = tested on: Glutamate [NMDA] receptor; test: Inhibition of Glutamate receptor (unknown origin) at 0.1 to 1 uM; format: protein-complex assay; conditions: human, dose 0.1-1 µM
Adenosine receptor A2a = Adenosine receptor A2a (Homo sapiens, UniProt P29274); test: Inhibition of human adenosine A2A receptor at 0.1 to 1 uM; conditions: dose 0.1-1 µM
[26] = Solubility of the compound in FaSSIF by HPLC analysis; format: physicochemical
[27] = Inhibition of calcium activated potassium channel (unknown origin) at 0.1 to 1 uM; conditions: human, dose 0.1-1 µM
[28] = biological target: Sigma non-opioid intracellular receptor 1 (Homo sapiens, UniProt Q99720); test: Inhibition of sigma 1 receptor (unknown origin) at 0.1 to 1 uM; conditions: dose 0.1-1 µM
[29] = biological target: Neuropeptide Y receptor type 2 (Homo sapiens, UniProt P49146); test: Inhibition of human NPY2 at 0.1 to 1 uM; conditions: dose 0.1-1 µM
Histamine H3 receptor = Histamine H3 receptor (Homo sapiens, UniProt Q9Y5N1); test: Inhibition of histamine H3 receptor (unknown origin) at 0.1 to 1 uM; conditions: dose 0.1-1 µM
[30] = Clearance in cynomolgus monkey at 2 mg/kg, po or 0.5 mg/kg, iv administered as cassette dose measured after 24 hrs relative to hepatic blood flow; format: ADME, organism-based, Macaca fascicularis; conditions: in vivo
[31] = biological target: Alpha-2C adrenergic receptor (Homo sapiens, UniProt P18825); test: Inhibition of human adrenergic alpha 2C receptor at 0.1 to 1 uM; conditions: dose 0.1-1 µM
[32] = biological target: Muscarinic acetylcholine receptor M3 (Homo sapiens, UniProt P20309); test: Inhibition of human muscarinic M3 receptor at 0.1 to 1 uM; conditions: dose 0.1-1 µM
[33] = biological target: Beta-2 adrenergic receptor (Homo sapiens, UniProt P07550); test: Inhibition of human adrenergic beta 2 receptor at 0.1 to 1 uM; conditions: dose 0.1-1 µM

Sequence of Adenosine receptor A2a (P29274 whole entry): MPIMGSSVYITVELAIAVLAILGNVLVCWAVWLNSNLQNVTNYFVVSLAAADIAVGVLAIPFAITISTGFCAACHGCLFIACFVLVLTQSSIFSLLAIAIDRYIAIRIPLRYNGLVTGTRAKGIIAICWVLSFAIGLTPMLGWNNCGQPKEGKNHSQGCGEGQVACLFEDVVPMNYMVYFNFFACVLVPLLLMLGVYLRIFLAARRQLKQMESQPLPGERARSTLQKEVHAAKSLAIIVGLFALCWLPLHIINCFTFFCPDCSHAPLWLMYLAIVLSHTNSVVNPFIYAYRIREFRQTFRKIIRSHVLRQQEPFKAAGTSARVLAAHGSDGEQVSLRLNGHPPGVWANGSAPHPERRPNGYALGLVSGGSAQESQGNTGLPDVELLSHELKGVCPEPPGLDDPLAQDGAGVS
Sequence of 5-hydroxytryptamine receptor 4 (Q13639 whole entry): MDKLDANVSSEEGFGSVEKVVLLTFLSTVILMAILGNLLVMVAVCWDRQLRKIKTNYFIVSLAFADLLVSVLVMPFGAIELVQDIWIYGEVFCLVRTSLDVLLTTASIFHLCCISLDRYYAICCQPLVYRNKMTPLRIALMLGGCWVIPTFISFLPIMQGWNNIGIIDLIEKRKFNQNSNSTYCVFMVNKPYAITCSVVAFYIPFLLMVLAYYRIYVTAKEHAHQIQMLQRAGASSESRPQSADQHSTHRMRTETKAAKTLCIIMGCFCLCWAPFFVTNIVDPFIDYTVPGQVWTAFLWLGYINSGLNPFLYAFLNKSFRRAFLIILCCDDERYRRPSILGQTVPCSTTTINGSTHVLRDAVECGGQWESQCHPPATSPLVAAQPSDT
Sequence of Muscarinic acetylcholine receptor M1 (P11229 whole entry): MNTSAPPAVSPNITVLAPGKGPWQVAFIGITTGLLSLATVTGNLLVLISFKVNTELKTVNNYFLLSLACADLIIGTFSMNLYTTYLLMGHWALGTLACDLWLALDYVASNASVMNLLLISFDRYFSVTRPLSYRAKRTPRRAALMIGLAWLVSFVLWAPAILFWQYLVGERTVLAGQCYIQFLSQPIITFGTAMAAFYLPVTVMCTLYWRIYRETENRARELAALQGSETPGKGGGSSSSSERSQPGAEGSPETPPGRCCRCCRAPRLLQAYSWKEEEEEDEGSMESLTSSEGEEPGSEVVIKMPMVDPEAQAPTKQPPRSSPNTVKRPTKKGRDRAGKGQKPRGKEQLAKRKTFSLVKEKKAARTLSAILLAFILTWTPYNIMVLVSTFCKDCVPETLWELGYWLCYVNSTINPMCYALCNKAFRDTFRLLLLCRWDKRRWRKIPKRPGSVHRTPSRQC
Sequence of Histamine H3 receptor (Q9Y5N1 whole entry): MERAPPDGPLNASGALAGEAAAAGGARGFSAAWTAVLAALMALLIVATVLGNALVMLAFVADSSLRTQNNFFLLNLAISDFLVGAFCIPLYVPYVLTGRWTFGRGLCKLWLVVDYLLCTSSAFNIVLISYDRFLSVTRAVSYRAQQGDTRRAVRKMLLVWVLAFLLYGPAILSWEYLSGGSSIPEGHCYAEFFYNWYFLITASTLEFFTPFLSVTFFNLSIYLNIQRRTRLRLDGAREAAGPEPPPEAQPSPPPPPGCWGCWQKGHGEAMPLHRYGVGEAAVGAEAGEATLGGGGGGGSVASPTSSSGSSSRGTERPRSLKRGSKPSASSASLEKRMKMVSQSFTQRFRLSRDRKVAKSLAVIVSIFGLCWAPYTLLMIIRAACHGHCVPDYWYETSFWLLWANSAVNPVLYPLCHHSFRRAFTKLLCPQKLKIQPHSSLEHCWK
Sequence of 5-hydroxytryptamine receptor 6 (P50406 whole entry): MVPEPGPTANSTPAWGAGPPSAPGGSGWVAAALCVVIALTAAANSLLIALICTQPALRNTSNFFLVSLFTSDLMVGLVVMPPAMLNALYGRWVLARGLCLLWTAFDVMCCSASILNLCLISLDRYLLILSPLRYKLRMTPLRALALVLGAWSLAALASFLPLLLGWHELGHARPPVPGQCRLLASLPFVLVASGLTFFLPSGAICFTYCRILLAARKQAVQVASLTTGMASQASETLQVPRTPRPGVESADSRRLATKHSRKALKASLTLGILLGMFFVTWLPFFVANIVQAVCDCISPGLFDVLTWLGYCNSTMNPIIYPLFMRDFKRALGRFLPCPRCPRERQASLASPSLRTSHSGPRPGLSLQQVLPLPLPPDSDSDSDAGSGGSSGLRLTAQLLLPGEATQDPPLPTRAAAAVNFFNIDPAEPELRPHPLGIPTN
Sequence of Alpha-2C adrenergic receptor (P18825 whole entry): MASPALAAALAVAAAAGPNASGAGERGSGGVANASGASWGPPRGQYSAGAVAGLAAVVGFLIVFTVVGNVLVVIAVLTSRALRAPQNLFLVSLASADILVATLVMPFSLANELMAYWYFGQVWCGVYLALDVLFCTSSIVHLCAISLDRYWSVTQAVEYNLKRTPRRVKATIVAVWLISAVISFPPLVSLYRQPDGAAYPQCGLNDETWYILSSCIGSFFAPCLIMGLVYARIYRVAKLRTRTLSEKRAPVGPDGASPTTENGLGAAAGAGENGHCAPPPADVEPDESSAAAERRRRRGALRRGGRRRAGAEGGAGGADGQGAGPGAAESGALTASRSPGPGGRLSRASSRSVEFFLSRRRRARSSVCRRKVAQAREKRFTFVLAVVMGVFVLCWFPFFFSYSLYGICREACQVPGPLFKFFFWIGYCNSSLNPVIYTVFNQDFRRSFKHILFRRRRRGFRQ
Sequence of Adenosine receptor A1 (P30542 whole entry): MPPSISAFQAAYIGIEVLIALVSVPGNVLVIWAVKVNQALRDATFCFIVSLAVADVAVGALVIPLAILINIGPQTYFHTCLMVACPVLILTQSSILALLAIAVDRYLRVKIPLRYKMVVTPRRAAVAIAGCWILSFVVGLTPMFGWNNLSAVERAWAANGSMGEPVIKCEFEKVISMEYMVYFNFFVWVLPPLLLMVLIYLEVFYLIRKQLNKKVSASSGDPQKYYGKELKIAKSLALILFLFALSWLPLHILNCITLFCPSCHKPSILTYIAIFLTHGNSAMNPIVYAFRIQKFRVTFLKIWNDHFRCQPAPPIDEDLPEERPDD
Sequence of Alpha-2A adrenergic receptor (P08913 whole entry): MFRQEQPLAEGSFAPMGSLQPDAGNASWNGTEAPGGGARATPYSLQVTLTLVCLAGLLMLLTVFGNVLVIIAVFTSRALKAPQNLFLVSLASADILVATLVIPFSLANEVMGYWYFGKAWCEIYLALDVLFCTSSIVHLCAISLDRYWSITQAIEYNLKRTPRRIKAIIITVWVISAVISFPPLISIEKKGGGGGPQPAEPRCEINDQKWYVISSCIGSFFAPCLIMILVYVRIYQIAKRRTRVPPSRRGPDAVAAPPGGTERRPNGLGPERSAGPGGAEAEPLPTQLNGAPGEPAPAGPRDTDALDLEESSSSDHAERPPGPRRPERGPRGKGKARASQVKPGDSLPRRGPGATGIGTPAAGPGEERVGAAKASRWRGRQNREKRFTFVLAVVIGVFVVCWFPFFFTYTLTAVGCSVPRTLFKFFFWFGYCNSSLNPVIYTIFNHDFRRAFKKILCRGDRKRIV
Sequence of Neuropeptide Y receptor type 2 (P49146 whole entry): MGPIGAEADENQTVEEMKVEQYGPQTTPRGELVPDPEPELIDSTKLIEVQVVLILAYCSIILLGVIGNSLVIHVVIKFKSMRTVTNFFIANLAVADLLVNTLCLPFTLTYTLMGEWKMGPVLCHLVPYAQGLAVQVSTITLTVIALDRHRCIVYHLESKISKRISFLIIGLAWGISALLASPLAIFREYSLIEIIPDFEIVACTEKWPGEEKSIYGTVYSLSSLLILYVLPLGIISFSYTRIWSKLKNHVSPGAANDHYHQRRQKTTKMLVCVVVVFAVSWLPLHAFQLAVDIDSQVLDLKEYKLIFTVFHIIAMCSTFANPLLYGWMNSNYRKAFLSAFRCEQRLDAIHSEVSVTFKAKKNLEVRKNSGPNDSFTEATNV
Sequence of 5-hydroxytryptamine receptor 1D (P28221 whole entry): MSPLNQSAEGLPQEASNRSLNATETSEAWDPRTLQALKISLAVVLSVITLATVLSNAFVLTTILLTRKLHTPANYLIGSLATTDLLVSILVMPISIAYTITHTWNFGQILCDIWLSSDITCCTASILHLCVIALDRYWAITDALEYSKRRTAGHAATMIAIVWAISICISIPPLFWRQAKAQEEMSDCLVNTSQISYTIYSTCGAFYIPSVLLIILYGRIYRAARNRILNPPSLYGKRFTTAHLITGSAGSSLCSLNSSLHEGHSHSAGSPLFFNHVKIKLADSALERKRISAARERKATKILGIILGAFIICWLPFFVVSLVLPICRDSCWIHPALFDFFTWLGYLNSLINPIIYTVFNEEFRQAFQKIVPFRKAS
Sequence of Muscarinic acetylcholine receptor M5 (P08912 whole entry): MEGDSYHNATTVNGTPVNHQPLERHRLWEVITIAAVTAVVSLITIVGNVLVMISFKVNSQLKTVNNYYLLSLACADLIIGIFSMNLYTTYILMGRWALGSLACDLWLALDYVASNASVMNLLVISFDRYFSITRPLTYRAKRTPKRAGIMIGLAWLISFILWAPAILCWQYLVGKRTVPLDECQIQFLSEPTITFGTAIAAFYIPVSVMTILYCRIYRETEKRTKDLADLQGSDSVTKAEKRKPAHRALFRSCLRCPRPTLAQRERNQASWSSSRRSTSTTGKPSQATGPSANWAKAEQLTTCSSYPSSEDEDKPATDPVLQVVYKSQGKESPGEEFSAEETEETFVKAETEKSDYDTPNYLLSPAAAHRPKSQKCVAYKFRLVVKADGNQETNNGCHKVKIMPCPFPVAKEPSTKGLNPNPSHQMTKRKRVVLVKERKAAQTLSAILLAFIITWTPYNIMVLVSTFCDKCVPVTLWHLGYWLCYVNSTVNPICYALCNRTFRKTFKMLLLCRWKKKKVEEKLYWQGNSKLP
Sequence of Sigma intracellular receptor 2 (Q5BJF2 whole entry): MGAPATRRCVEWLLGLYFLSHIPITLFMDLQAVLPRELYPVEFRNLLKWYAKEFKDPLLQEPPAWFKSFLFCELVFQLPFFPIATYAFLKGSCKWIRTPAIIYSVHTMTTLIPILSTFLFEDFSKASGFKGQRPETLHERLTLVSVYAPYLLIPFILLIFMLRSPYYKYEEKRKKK

Q: For `CCN1C(=O)N(c2c(F)c(OC)cc(OC)c2F)Cc2cnc3[nH]c(CN4CCOCC4)cc3c21` [PEMIGATINIB], which “inhibition (INH)” value [1] is on record?
A: Not Active

Q: What about the “inhibition (INH)” value [2] of the same compound?
A: Not Active

Q: What about the “inhibition (INH)” value [3] of the same compound?
A: Not Active

Q: What about the “inhibition (INH)” value [4] of the same compound?
A: Not Active

Q: What about the “inhibition (INH)” value [5] of the same compound?
A: Not Active

Q: What about the AUC at 24 h [6] of the same compound?
A: 6.19 µM·h

Q: And the “inhibition (INH)” value [7]?
A: Not Active

Q: What about the “inhibition (INH)” value [8] of the same compound?
A: Not Active

Q: And the “inhibition (INH)” value (Histamine H1 receptor)?
A: Not Active

Q: And the TGI (KATO III)?
A: Active

Q: And the “inhibition (INH)” value [9]?
A: Not Active

Q: What about the “inhibition (INH)” value [10] of the same compound?
A: Not Active

Q: And the bioavailability [11]?
A: 29%

Q: And the “inhibition (INH)” value [12]?
A: Not Active

Q: And the half-life [13]?
A: 15.7 h

Q: And the “inhibition (INH)” value [14]?
A: Not Active

Q: And the “inhibition (INH)” value [15]?
A: Not Active

Q: What about the “inhibition (INH)” value [16] of the same compound?
A: Not Active

Q: And the “inhibition (INH)” value (Histamine H2 receptor)?
A: Not Active

Q: What about the “inhibition (INH)” value (D(1A) dopamine receptor) of the same compound?
A: Not Active

Q: What about the “inhibition (INH)” value [17] of the same compound?
A: Not Active

Q: What about the IC50 (CYP2C8) of the same compound?
A: > 25 µM

Q: And the “inhibition (INH)” value [18]?
A: Not Active

Q: What about the “inhibition (INH)” value (GABA-B receptor) of the same compound?
A: Not Active

Q: And the “inhibition (INH)” value [19]?
A: Not Active

Q: And the “inhibition (INH)” value [20]?
A: Not Active

Q: And the CL [21]?
A: 10%

Q: And the IC50 (CYP3A4)?
A: > 25 µM

Q: What about the “inhibition (INH)” value [22] of the same compound?
A: Not Active

Q: What about the “inhibition (INH)” value [23] of the same compound?
A: Not Active

Q: And the Vd [24]?
A: 1.85 L/kg

Q: And the “inhibition (INH)” value (Adenosine receptor A1)?
A: Not Active

Q: And the “inhibition (INH)” value [25]?
A: Not Active

Q: And the “inhibition (INH)” value (Adenosine receptor A2a)?
A: Not Active

Q: What about the solubility [26] of the same compound?
A: 11 µg/mL (≈ 22.6 µM)

Q: What about the “inhibition (INH)” value [27] of the same compound?
A: Not Active

Q: And the “inhibition (INH)” value [28]?
A: Not Active

Q: And the “inhibition (INH)” value [29]?
A: Not Active

Q: What about the “inhibition (INH)” value (Histamine H3 receptor) of the same compound?
A: Not Active

Q: And the CL [30]?
A: 8%

Q: And the “inhibition (INH)” value [31]?
A: Not Active

Q: And the “inhibition (INH)” value [32]?
A: Not Active

Q: And the “inhibition (INH)” value [33]?
A: Not Active
